Among the data in publication PMC6099102, “Effect of the Nature of Donor Atoms on the Thermodynamic, Kinetic and Relaxation Properties of Mn(II) Complexes Formed With Some Trisubstituted 12-Membered Macrocyclic Ligands” (Frontiers in Chemistry, 2018) are r1p values, retold here.

Data set [1] in a line: Longitudinal water proton relaxivity (r1p) of the Mn(II) complexes. In kind it is physicochemical. The following applies: 0.5 T field strength, 25 °C and pH = 7.4. On the procedure:
The relaxometric data were collected using a Bruker Minispec MQ20 NMR relaxometer. […] A datapoint plotted on figures represents an average of 5–6 T1 measurements (Figures S3–S9 in Supplementary Material). The data were fitted by using the molar r1p relaxivity value of the MnCl2 ([…] at 0.49 T and 25 °C). The equilibrium constants were calculated using the PSEQUAD program (Zékány and Nagypál, [1985]).
The longitudinal water proton relaxation rates (r1 = 1/T1-1/Tw) were measured at 20 MHz with a Bruker Minispec MQ-20 relaxometer (Bruker Biospin, Germany). Samples were thermostated by using a circulating water bath at 25.0 ± 0.2 °C. The longitudinal relaxation times (T1) were measured by the inversion-recovery method (180° − τ − 90°), averaging 5–6 data points collected for each concentration point obtained from 14 different τ values (τ values ranging between 0 to at least 6 times the expected T1). The relaxivity of the complexes was determined by titrating a nearly 1.0 mM ligand solution with a Mn(II) stock solution at pH = 7.22–7.43 (50 mM HEPES buffer, I = 0.15 M NaCl, 25 °C). Under these conditions, the only Mn(II) ion containing species present in solution is the [Mn(L)], which was supported by the r1 vs. pH profiles. The relaxivity of the complex was determined as the slope of the strait line obtained by plotting 1/T1p values as a function of Mn(II) concentration for samples with [Ligand] > [Mn(II)]. The relaxivity of [Mn(DOTP)]^6− and [Mn(DO3P)]^4− was determined in the pH range of 10.0–11.0 and 8.5–9.3, respectively where mainly the [Mn(DO3P)]^4− and [Mn(DOTP)]^6− complex exists in solution (Figures S4 and S9 in Supplementary Material).
The relaxivity (r1p, mM^−1s^−1) is defined as the longitudinal water proton relaxation rate in a solution containing 1.0 mM concentration of the paramagnetic species. It characterizes the efficiency of a paramagnetic metal chelate to enhance the solvent proton relaxation rate at a given magnetic field (usually 20 MHz) and temperature. The inner-sphere contribution to relaxivity is directly proportional to the number of metal bound water molecules (q), and therefore, relaxivity values may provide some useful information on the hydration state of paramagnetic complexes of similar molecular weights and electronic relaxation times. […] The r1p values of the Mn(II) complexes formed with heptadentate 12-membered macrocyclic ligands were determined at 0.5 T field strength and 25 °C and reported in Table 4 along with some relaxivity data published for the complexes of hexa-, hepta- and octadentate ligands. […] Below these pH ranges the phosphonate moieties undergo protonation, which further increases the relaxivity (2.60–2.90 mM^−1s^−1 values were observed near pH = 7.4, see Supplementary Material). Similar increase in the relaxivity (to 3.20 mM^−1s^−1 at 20 MHz, 37 °C) is observed for the [Mn(DOTA)]^2− complex upon its protonation and formation of the thermodynamically stable diprotonated [Mn(H2DOTA)] complex that exists as a non-hydrated chelate both in solution and in the solid state (Wang and Westmoreland, [2009]). The relaxivity of the diprotonated species at t → 0 time point was determined from the extrapolation of the relaxivity vs. time data collected after acidification of the samples containing the complexes. The X-ray crystallographic structure of [Mn(H2DOTA)] indicates the protonation of two trans carboxylate moieties (e.g., the coordination around the metal ion is similar to that observed in [Mn(trans-DO2A)] as determined by DFT calculations). Thus, the relaxivity of the diprotonated [Mn(H2DOTA)] and [Mn(H2DOTMA)] complexes is expected to be similar to that of [Mn(trans-DO2A)] (when q = 0). The value obtained by us is considerably higher, which highlights the importance of prototropic exchange as a useful tool to improve the relaxivity of the complexes (however, it has to be underlined that the protonation of the complex generally leads to a decrease in kinetic inertness).

The conditions of data set [2]: ref Rolla et al. ([2013]); cited from earlier work.

The structures appear in SMILES notation. Like-named read-outs stand apart in the source and are kept apart here.

As to `O=C(CN1CCN(CC(=O)N2CCCCC2)Cc2cccc(n2)CN(CC(=O)N2CCCCC2)CC1)N1CCCCC1.[Mn+2]` [[Mn(PC3AM^Pip)]^2+], in data set [1], the r1p was 1.28 mM⁻¹ s⁻¹.
For the molecule `O=C(O)CN1CCNCCN(CC(=O)O)CCN(CC(=O)O)CC1` [DO3A], the r1p in data set [2] was 1.30 mM⁻¹ s⁻¹.
